The record followed here is patent publication US20220062317A1, “NA+/K+ ATPASE INHIBITORS FOR USE IN THE PREVENTION OR TREATMENT OF METASTASIS” (UNIVERSITÄT BASEL, priority 2018, published 2022).

Assay [1] concerns LM2 xenografts. The assay is described as follows: LM2 xenograft, spontaneous CTC clusters and metastasis. The conditions noted are these: LM2 tumors; ouabain treatment. It is filed as in vivo, NSG mice.
Assay [2] relates to BRx50 human CTC-derived cells. In words: FDA-approved compound screen for CTC cluster dissociation (high content imaging). The class given is cell-based. The conditions noted are these: even at lowest concentration tested (0.1 μM).
Assay [3] deals with BR16 cells. The assay is described as follows: Tail vein injection of in vitro pre-treated BR16 cells, metastasis seeding. It is filed as in vivo, NSG mice. As for the experimental part:
To test whether ouabain and digitoxin would also enable CTC clusters disruption in vivo, the inventors took a dual approach. First, the inventors tested whether a 17-day in vitro treatment with ouabain and digitoxin would translate into a reduced ability of the treated cells to efficiently seed metastasis in untreated mice (FIG. 7A). To this end, upon treatment, BR16 cells stably expressing GFP-luciferase were injected into the tail vein of NSG mice and noninvasively monitored through luminescence imaging for their ability to seed and propagate metastatic lesions.
For tail vein experiments, NOD SCID Gamma (NSG) mice (Jackson Labs) were injected with 1×10^6 BR16-mCherry cells resuspended in 100 μl D-PBS and monitored with IVIS Lumina II (Perkin Elmer). For CTC xenograft mouse model isolation, 1×10^6 LM2-GFP, 1×10^6 BRx50-GFP or 1×10^6 BR16-GFP cells were resuspended in 100 μl of 50% Cultrex PathClear Reduced Growth Factor Basement Membrane Extract (R&D Biosystems, Cat #3533-010-02) in D-PBS and injected orthotopically in NSG mice. Blood draw was performed 4-5 weeks after tumor onset for LM2 cells, 5-6 months after tumor onset for BR16 and 6-7 months after tumor onset for BRx50 cells.

Assay [4] relates to BR16 CTC-derived cells. The assay is described as follows: FDA-approved compound screen for CTC cluster dissociation (high content imaging). The class given is cell-based, human. To be noted: even at lowest concentration tested (0.1 μM), 2 days, hypoxia. As for the experimental part:
In order to identify actionable vulnerabilities of CTC clusters, and to test whether the epigenetic and transcriptional features of clustered CTCs are reversible upon cluster dissociation into single cells the following steps were undertaken. First, the expression of all known cell-cell junction (CCJ) components in patient samples obtained from normal breast (TGCA REF), breast cancer (TOGA REF), single CTCs and CTC clusters were assessed (Aceto et al. Cell 2014). While breast cancer cells tend to only partially reduce their CCJ repertoire compared to normal breast cells, CTCs express only a small fraction of CCJ components, likely as a consequence to their increased motility. Yet, CTC clusters retain a higher number of CCJs as compared to single CTCs. […] To this end, 2′486 FDA-approved compounds were evaluated for their ability to dissociate clusters of human breast CTC-derived cells. Cluster dissociation was assessed using a high content screening microscope and comparing cells treated with each individual compound to steady state clustered BR16 cells and 40 μm-filtered BR16 single cell suspension as negative and positive controls, respectively (FIG. 4a). […] For the majority of the 2′486 FDA-approved compounds, when using a 5 μM concentration for 2 days in hypoxic conditions, no detectable reduction in cell viability (>70% viability) nor mean cluster size (>450 μm2) in BR16 CTC-derived cells was observed. […] These compounds include inhibitors of Na^+/K^+ ATPases (n=6), HDACs (n=2), nucleotide biosynthesis (n=5), kinases (n=4), GPCRs (n=2), cholesterol biosynthesis (n=1), nuclear export (n=1), tubulin (n=9), as well as DNA binding compounds (n=8) and antibiotics (n=1).
A library containing 2,486 FDA-approved compounds was purchased from the Nexus Platform ETH Zurich. Each compound was resuspended using CTC medium at a 15 μM concentration and 20 μl were aliquoted in duplicate in a total of 64 Flat Bottom Clear Ultra Low attachment 96-well plates (Corning, Cat #3474).
To reduce cluster size in CTC derived cell lines, a 40 μm cell strainer was used (Corning, Cat #431750). […] Plates were incubated in hypoxia (5% oxygen) for 2 days and then 20 μl were transferred into a 96 well Black/clear Tissue culture treated plate (BD Falcon, Cat #353219) containing 40 μl of D-PBS (Invitrogen, Cat #14190169) and stained for 1 hr at 37° C. with a final concentration of 4 μM Hoechst 34580 (Invitrogen, Cat #H21486), 2 μM TMRM (Invitrogen, Cat #T668) and 4 μM TOTO-3 (Invitrogen, Cat #T3604). For each plate, two positive controls (non-treated cells) and two negative controls (non-treated and […] cells) were included. Z-factors were calculated per individual plate using the following formula: Z′=1−3(σs+σc)/|μs−μc|^3 (σ: standard deviation, μ: mean, s: positive control and c: negative control) (Martin et al., PLoS One 9, e88338, 2014) and ranged between 0.62-0.937. Plates were scanned using Operetta High Content Imaging System (Perkin Elmer) and cluster analysis was performed using Harmony High Content Imaging and Analysis Software (Perkin Elmer).

In the case of `C[C@@H]1O[C@@H](O[C@H]2C[C@@H](O)[C@]3(CO)[C@H]4[C@H](O)C[C@]5(C)[C@@H](C6=CC(=O)OC6)CC[C@]5(O)[C@@H]4CC[C@]3(O)C2)[C@H](O)[C@H](O)[C@H]1O` [ouabain, Ouabain], in assay [1], the “CTC clusters (proportion)” value is recorded as “decrease in CTC clusters”, the “metastatic burden compared to control” value is “reduced metastatic burden”, the “overall CTC numbers” value was “without any change” and the primary tumor size result is recorded as “without any change”. Besides, the “proportion of single CTCs” value in assay [1] is given as “increase in the proportion of single CTCs”. The mean cluster size result in assay [2] is recorded as “significant decrease in mean cluster size”. For the same compound, the “expression of cleaved caspase 3 compared to control cells” value in assay [3] (cancer cells in lungs, pre-treated cells, day 1) is “significant increase”. Further, the “ability of BR16 cells to lodge in the lung tissue immediately after injection (bioluminescence flux)” value in assay [3] (cells pre-treated 17 days in vitro, 20 nM, tail vein, day 0) is recorded as “did not affect”. The “ability to survive during the first day upon arrival (bioluminescence flux)” value in assay [3] (cells pre-treated 17 days in vitro, 20 nM, tail vein, day 1) is on record as “reduced ability to survive”. The metastatic outgrowth result in assay [3] (pre-treated cells, no further treatment in vivo, 72 days upon injection) is “delayed metastatic outgrowth”. The mean cluster size result in assay [4] is recorded as “significant decrease in mean cluster size”.
